Molecules are shown by their SMILES. pIC50: −log10 of the molar value. ≈ marks a conversion by molar mass, not a printed value.

In one data set the test system is Vero. In words: Cytotoxicity against african green monkey Vero cells after 72 hrs by tetrazolium dye assay. It counts as cell-based. The conditions noted are these: Chlorocebus sabaeus.
A short description of data set [1]: Metabolic stability in mouse liver microsomes after 1 hr at 37 degC. It counts as ADME, Microsome. The conditions noted are these: for remaining at 1 h: liver microsomes, read-out: Stability. A general note: Liver microsomes are a subcellular fraction often used to study metabolism.
Data set [2] relates to Mycobacterium tuberculosis. In words: Antimycobacterial activity against Mycobacterium tuberculosis H37Rv expressing pFCA-luxAB after 10 days by luminescence-based low-oxygen recovery assay. The format is functional. To be noted: 240 h.
The test system of data set [3] is Mycobacterium tuberculosis. In words: Antimycobacterial activity against Mycobacterium tuberculosis H37Rv after 16 to 24 hrs by microplate alamar blue assay. The format is functional. In general terms: Alamar Blue is a resazurin reagent that responds to reducing activity.
The nature of data set [4]: Solubility in water at pH 7 at 20 degC. It counts as physicochemical.
Data set [5] concerns Mycobacterium tuberculosis. In words: Antitubercular effect in Mycobacterium tuberculosis infected BALB/c mouse assessed as CFU reduction at 100 mg/kg, po administered 5 days a week for 3 weeks relative to PA-824. It counts as functional.
Data set [6] in a line: (§1) Metabolic stability in human liver microsomes after 1 hr at 37 degC. It counts as ADME, Microsome. To be noted: liver microsomes, read-out: Stability.
In a further data set the test system is Liver microsomes. The description is as §1. The format is ADME, Microsome. The conditions noted are these: microsomes, 1 h.
A short description of data set [7]: Thermodynamic solubility in water at pH 7.4 at. The conditions noted are these: for solubility thermodynamic: water. It counts as physicochemical.

The pIC50 is −log10 of the IC50, conventionally taken in molar units. The MIC is the least concentration at which growth counts as inhibited. As for `O=[N+]([O-])c1cn2c(n1)OC[C@@H](OCc1nnn(-c3ccc(OC(F)(F)F)cc3)n1)C2`, the pIC50 in the data set on Vero was < 3.89. Also, in data set [1], the remaining at 1 h stood at 81%. For the same compound, the results for the minimum inhibitory concentration (MIC) in [2] and in data set [3] were 1.3 µM (≈ 0.555 µg/mL) and 0.035 µM (≈ 0.015 µg/mL), respectively.

The solubility is how much of the substance goes into solution per volume. In turn, `O=[N+]([O-])c1cn2c(n1)OC[C@@H](OCc1ccc(-c3ccc(C(F)(F)F)nc3)s1)C2` displayed a solubility in data set [4] of 8.9 µg/mL (≈ 20.9 µM). The pIC50 in the data set on Vero is < 3.89. The remaining at 1 h in [1] is 77%; in data set [6], 85%. For the same compound, the minimum inhibitory concentration (MIC) in data set [2] was found to be 4.4 µM (≈ 1.88 µg/mL); in data set [3] it was 0.05 µM (≈ 0.0213 µg/mL). Moreover, the “fold change (FC)” value in data set [5] turned out to be 2.3.

Consider `O=[N+]([O-])c1cn2c(n1)OC[C@@H](OCc1cnn(-c3ccc(C(F)(F)F)cc3)n1)C2`, for which, in data set [4], the solubility came to 1 µg/mL (≈ 2.44 µM). Further, in the data set with Vero, the pIC50 was < 3.89. The figures for the MIC in [2] and in [3] were 2.1 µM (≈ 0.862 µg/mL) and 0.05 µM (≈ 0.0205 µg/mL), respectively.

In the case of `N#Cc1ccc(-c2ccc(CO[C@@H]3COc4nc([N+](=O)[O-])cn4C3)s2)cc1`, the negative logarithm of the IC50 (pIC50) in the data set with Vero is < 3.89. The remaining at 1 h in [1] was found to be 54%; in [6], 85%. The MIC in [2] amounted to 1.7 µM (≈ 0.65 µg/mL); in data set [3] it was 0.055 µM (≈ 0.021 µg/mL). Moreover, in data set [5], the “fold change (FC)” value is 0.02.

Regarding `O=[N+]([O-])c1cn2c(n1)OC[C@@H](OCc1cnn(-c3ccc(OC(F)(F)F)cc3)c1)C2`, the negative logarithm of the IC50 (pIC50) with Vero is < 3.89. The remaining at 1 h was determined as 64% in data set [1] and 87% in data set [6]. Also, the MIC in data set [2] worked out at 1.8 µM (≈ 0.766 µg/mL); in [3], 0.15 µM (≈ 0.0638 µg/mL). In addition, in [5], the “fold change (FC)” value came out at 1.5.

What is called solubility (thermodynamic) is the concentration in solution at equilibrium with solid. For the compound `O=[N+]([O-])c1cn2c(n1)OC[C@@H](OCc1ccn(-c3ccc(OC(F)(F)F)cc3)n1)C2`, the negative-log IC50 (pIC50) in the data set with Vero is < 3.89. The Stability stood at 67% in data set [1] (microsomes, 1 h) and 87% in the data set on Liver microsomes. The minimum inhibitory concentration (MIC) in [2] was found to be 0.61 µM (≈ 0.259 µg/mL); in data set [3], 0.05 µM (≈ 0.0213 µg/mL). Further, the “fold change (FC)” value in data set [5] worked out at 41. Besides, the solubility (thermodynamic) in [7] was 23 µg/mL (≈ 54.1 µM).

Regarding `O=[N+]([O-])c1cn2c(n1)OC[C@@H](OCc1cn(-c3ccc(OC(F)(F)F)cc3)nn1)C2`, the pIC50 in the data set on Vero is < 3.89. Besides, the remaining at 1 h in [1] worked out at 74%; in data set [6], 99%. The figures for the minimal inhibitory concentration (MIC) in data set [2] and in [3] were 3.3 µM (≈ 1.41 µg/mL) and 0.075 µM (≈ 0.032 µg/mL), respectively. For the same compound, the “fold change (FC)” value in data set [5] is 0.34.

For `O=[N+]([O-])c1cn2c(n1)OC[C@@H](OCc1nnn(-c3ccc(C(F)(F)F)cc3)n1)C2`, in data set [4], the solubility was found to be 5 µg/mL (≈ 12.2 µM). The pIC50 in the data set on Vero was < 3.89. Moreover, the MIC worked out at 1.4 µM (≈ 0.576 µg/mL) in data set [2] and 0.2 µM (≈ 0.0823 µg/mL) in data set [3].

With `Cn1nc(-c2ccc(OC(F)(F)F)cc2)cc1CO[C@@H]1COc2nc([N+](=O)[O-])cn2C1`, the pIC50 with Vero was < 3.89. Moreover, the remaining at 1 h in data set [1] is 81%; in data set [6] it was 86%. The MIC in data set [2] amounted to 0.58 µM (≈ 0.255 µg/mL); in [3] it was 0.06 µM (≈ 0.0264 µg/mL). Besides, the “fold change (FC)” value in [5] is recorded as 12. The compound further came in with a solubility in data set [7] (buffer) of 0.88 µg/mL (≈ 2 µM).

Take `O=[N+]([O-])c1cn2c(n1)OC[C@@H](OCc1ccc(-c3ccc(OC(F)(F)F)cc3)cc1)C2`: the negative logarithm of the IC50 (pIC50) in the data set with Vero is < 3.89. In [2], this compound displayed an MIC of 1.3 µM (≈ 0.566 µg/mL). Moreover, in data set [7], the thermodynamic solubility was < 0.5 µg/mL.

For `O=[N+]([O-])c1cn2c(n1)OC[C@@H](OCc1ccc(OC(F)(F)F)cc1)C2` [PRETOMANID], the negative-log IC50 (pIC50) in the data set with Vero was < 3.89. Also, in data set [2], the lowest concentration to inhibit growth (MIC) was 2.6 µM (≈ 0.934 µg/mL). Moreover, the thermodynamic solubility in data set [7] was 11 µg/mL (≈ 30.6 µM).

Values taken from ChEMBL document CHEMBL1156790, “Synthesis and structure-activity relationships of antitubercular 2-nitroimidazooxazines bearing heterocyclic side chains” (J Med Chem, 2010).
